Measured values published in patent US10597388B2, “Pyridazinone herbicides” (FMC CORPORATION, priority 2014, dated 2020).

Key:
Assay in all cases: Test C greenhouse herbicide test, pre- and postemergence
Type in all cases: in vivo
[1] = system: barnyardgrass (Echinochloa crus-galli)
Procedure, shortened: (§1)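 Seeds sown in loam–sand blend treated preemergence; plants in peat-based medium sprayed postemergence at 2–18 cm (1- to 4-leaf stage); chemicals in non-phytotoxic solvent with surfactant. Greenhouse 13–15 d, then visual rating versus controls on 0–100 scale (0 no effect, 100 complete control).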

[2] = system: blackgrass (Alopecurus myosuroides)
Procedure, shortened: as §1

corn (Zea mays) = system: corn (Zea mays)
Procedure, shortened: as §1

[3] = system: crabgrass, large (large crabgrass, Digitaria sanguinalis)
Procedure, shortened: as §1

[4] = system: foxtail, giant (giant foxtail, Setaria faberii)
Procedure, shortened: as §1

[5] = system: galium (catchweed bedstraw, Galium aparine)
Procedure, shortened: as §1

[6] = system: lambsquarters (Chenopodium album)
Procedure, shortened: as §1

[7] = system: morningglory (Ipomoea coccinea)
Procedure, shortened: as §1

[8] = system: oilseed rape (Brassica napus)
Procedure, shortened: as §1

[9] = system: pigweed (Amaranthus retroflexus)
Procedure, shortened: as §1

[10] = system: ragweed (common ragweed, Ambrosia elatior)
Procedure, shortened: as §1

[11] = system: ryegrass, Italian (Italian ryegrass, Lolium multiflorum)
Procedure, shortened: as §1

[12] = system: velvetleaf (Abutilon theophrasti)
Procedure, shortened: as §1

[13] = system: waterhemp (common waterhemp, Amaranthus rudis)
Procedure, shortened: as §1

[14] = system: wheat (winter wheat, Triticum aestivum)
Procedure, shortened: as §1

[15] = Postemergence, 31 g ai/ha, 0 to 100 scale (0 no effect, 100 complete control)
[16] = Postemergence, 125 g ai/ha, scale 0 to 100, 0 is no effect, 100 is complete control
[17] = Postemergence, 250 g ai/ha, scale 0 to 100, 0 no effect, 100 complete control, 13 to 15 d
[18] = Preemergence, 31 g ai/ha, scale 0 to 100, 0 is no effect, 100 is complete control
[19] = Preemergence, 62 g ai/ha, scale 0 to 100, 0 is no effect, 100 is complete control
[20] = Preemergence, 125 g ai/ha, scale 0 to 100, 0 is no effect, 100 is complete control
[21] = Preemergence, 250 g ai/ha, scale 0 to 100, 0 no effect, 100 complete control
[22] = postemergence, 62 g ai/ha, scale 0 to 100, 0 no effect, 100 complete control

Cc1nn(C)c(=O)c(-c2c(C)sc3ccc(Br)cc23)c1O [Compound 22]
30: Plant response rating, Morningglory [7, 18] | Plant response rating, Ragweed [10, 18]
80: Oilseed Rape plant response rating [8, 21] | Plant response rating, Velvetleaf [12, 16] | Plant response rating, Velvetleaf [12, 17] | Plant response rating, Waterhemp [13, 19]
15: Plant response rating, Barnyardgrass [1, 17] | Plant response rating, Foxtail, Giant [4, 19] | Foxtail, Giant plant response rating [4, 22] | Oilseed Rape plant response rating [8, 22]
90: Galium plant response rating [5, 15] | Plant response rating, Galium [5, 18] | Plant response rating, Galium [5, 19] | Galium plant response rating [5, 22] | Plant response rating, Lambsquarters [6, 16] | Plant response rating, Lambsquarters [6, 17] | Plant response rating, Lambsquarters [6, 20] | Lambsquarters plant response rating [6, 21] | Plant response rating, Oilseed Rape [8, 16] | Plant response rating, Pigweed [9, 16] | Plant response rating, Ragweed [10, 16] | Plant response rating, Ragweed [10, 20] | Plant response rating, Ryegrass, Italian [11, 16] | Plant response rating, Ryegrass, Italian [11, 17] | Plant response rating, Ryegrass, Italian [11, 18] | Plant response rating, Ryegrass, Italian [11, 19] | Plant response rating, Waterhemp [13, 17]
75: Plant response rating, Oilseed Rape [8, 17] | Pigweed plant response rating [9, 22] | Plant response rating, Ragweed [10, 19] | Ragweed plant response rating [10, 22] | Plant response rating, Velvetleaf [12, 20] | Waterhemp plant response rating [13, 15] | Plant response rating, Waterhemp [13, 16]
60: Barnyardgrass plant response rating [1, 21] | Plant response rating, Pigweed [9, 18] | Ryegrass, Italian plant response rating [11, 15] | Plant response rating, Velvetleaf [12, 19]
25: Plant response rating, Lambsquarters [6, 18]
85: Foxtail, Giant plant response rating [4, 21] | Lambsquarters plant response rating [6, 22] | Plant response rating, Morningglory [7, 19] | Pigweed plant response rating [9, 15]
100: Morningglory plant response rating [7, 15] | Plant response rating, Morningglory [7, 16] | Plant response rating, Morningglory [7, 17] | Plant response rating, Morningglory [7, 20] | Morningglory plant response rating [7, 21] | Morningglory plant response rating [7, 22] | Plant response rating, Pigweed [9, 19] | Plant response rating, Pigweed [9, 20] | Pigweed plant response rating [9, 21] | Plant response rating, Ragweed [10, 17] | Ragweed plant response rating [10, 21] | Plant response rating, Waterhemp [13, 20] | Waterhemp plant response rating [13, 21]
10: Plant response rating, Barnyardgrass [1, 16] | Foxtail, Giant plant response rating [4, 15]
35: Corn plant response rating (corn (Zea mays); [21]) | Crabgrass, Large plant response rating [3, 21] | Plant response rating, Foxtail, Giant [4, 17]
0: Blackgrass plant response rating [2, 15] | Blackgrass plant response rating [2, 22] | Corn plant response rating (corn (Zea mays); [15]) | Plant response rating, Corn (corn (Zea mays); [18]) | Plant response rating, Corn (corn (Zea mays); [19]) | Plant response rating, Corn (corn (Zea mays); [20]) | Crabgrass, Large plant response rating [3, 15] | Plant response rating, Crabgrass, Large [3, 18] | Plant response rating, Crabgrass, Large [3, 19] | Plant response rating, Crabgrass, Large [3, 20] | Plant response rating, Oilseed Rape [8, 18] | Wheat plant response rating [14, 15] | Plant response rating, Wheat [14, 17] | Plant response rating, Wheat [14, 19] | Plant response rating, Wheat [14, 20] | Wheat plant response rating [14, 21] | Wheat plant response rating [14, 22]
55: Plant response rating, Foxtail, Giant [4, 20]
50: Velvetleaf plant response rating [12, 22]
95: Plant response rating, Galium [5, 16] | Plant response rating, Galium [5, 17] | Plant response rating, Galium [5, 20] | Galium plant response rating [5, 21] | Plant response rating, Ryegrass, Italian [11, 20] | Ryegrass, Italian plant response rating [11, 21]
45: Blackgrass plant response rating [2, 21] | Plant response rating, Lambsquarters [6, 19]
40: Plant response rating, Blackgrass [2, 20] | Plant response rating, Foxtail, Giant [4, 16]
20: Plant response rating, Blackgrass [2, 16] | Plant response rating, Blackgrass [2, 17] | Plant response rating, Blackgrass [2, 19] | Velvetleaf plant response rating [12, 15]
70: Lambsquarters plant response rating [6, 15] | Ragweed plant response rating [10, 15] | Ryegrass, Italian plant response rating [11, 22] | Waterhemp plant response rating [13, 22]
5: Barnyardgrass plant response rating [1, 15] | Plant response rating, Barnyardgrass [1, 18] | Plant response rating, Barnyardgrass [1, 19] | Plant response rating, Barnyardgrass [1, 20] | Barnyardgrass plant response rating [1, 22] | Plant response rating, Blackgrass [2, 18] | Plant response rating, Corn (corn (Zea mays); [16]) | Plant response rating, Corn (corn (Zea mays); [17]) | Corn plant response rating (corn (Zea mays); [22]) | Plant response rating, Crabgrass, Large [3, 16] | Plant response rating, Crabgrass, Large [3, 17] | Crabgrass, Large plant response rating [3, 22] | Plant response rating, Foxtail, Giant [4, 18] | Oilseed Rape plant response rating [8, 15] | Plant response rating, Oilseed Rape [8, 19] | Plant response rating, Oilseed Rape [8, 20] | Plant response rating, Wheat [14, 16]
98: Plant response rating, Pigweed [9, 17] | Velvetleaf plant response rating [12, 21]
